Our source for the Activity and inhibition values is ChEMBL document CHEMBL3091360, “Homosecoiridoid alkaloids with amino acid units from the flower buds of Lonicera japonica” (J Nat Prod, 2013).

Usually inhibition stands for how much of the control response was suppressed.

One assay concerns KETR3. The assay can be described thus: Cytotoxicity against human Ketr3 cells at 10 uM after 96 hrs by MTT assay. The class given is functional, cell-based.
Another assay has as its system Bel-7402. Put plainly: Cytotoxicity against human Bel7402 cells at 10 uM after 96 hrs by MTT assay. The assay is classed as functional, cell-based. A general note: Tetrazolium assays rely on reduction of a dye to a coloured formazan, in cell work by metabolically active cells.
Another assay has as its system BGC-823. The assay can be described thus: Cytotoxicity against human BGC823 cells at 10 uM after 96 hrs by MTT assay. The class given is functional, cell-based.
Another assay deals with HCT-8. The assay can be described thus: Cytotoxicity against human HCT8 cells at 10 uM after 96 hrs by MTT assay. The class given is functional, cell-based.
A further assay has as its system A549. Put plainly: Cytotoxicity against human A549 cells at 10 uM after 96 hrs by MTT assay. The class given is functional, cell-based.
Another assay concerns MCF7. Put plainly: Cytotoxicity against human MCF7 cells at 10 uM after 96 hrs by MTT assay. The class given is functional, cell-based.
Assay [1] can be described thus: Antiinflammatory activity in rat polymorphonuclear leukocytes assessed as inhibition of PAF-induced release of glucuronidase at 10 uM. The class given is functional.
Assay [2] deals with Human immunodeficiency virus 1. Put plainly: Antiviral activity against HIV1 infected in human 293T cells expressing VSV-G assessed as inhibition of viral p24 production at 10 uM after 48 hrs by ELISA. The assay is classed as functional, organism-based. (In an ELISA, binding on a coated surface is turned into a signal by an enzyme label.)

The source made the active and inactive calls. The rule behind the calls is not given here.

For the compound `C=C[C@H]1[C@H](O[C@@H]2O[C@H](CO)[C@@H](O)[C@H](O)[C@H]2O)OC=C(C(=O)[O-])[C@H]1/C=C/c1cc(C(=O)O)c[n+]([C@H](C(=O)O)[C@@H](C)CC)c1`, the outcome with KETR3, in the assay on Bel-7402, in the assay with BGC-823, with HCT-8, in the assay on A549 and in the assay on MCF7 was inactive. Also, in assay [1], the inhibition at 10 µM was below 30%. Moreover, the inhibition entry in assay [2] was “inactive”.
In the case of `O=C(/C=C/c1ccc(O)c(O)c1)O[C@@H]1C[C@@](O)(C(=O)O)C[C@@H](O)[C@H]1O`, the result in the assay on KETR3, in the assay with Bel-7402, in the assay with BGC-823, with HCT-8, in the assay on A549 and in the assay with MCF7 was inactive. In addition, the inhibition at 10 µM in assay [1] was below 30%. Moreover, the inhibition result in assay [2] is “inactive”.
As to `C=C[C@H]1[C@H](O[C@@H]2O[C@H](CO)[C@@H](O)[C@H](O)[C@H]2O)OC=C(C(=O)OC)[C@H]1/C=C/c1cc(C(=O)O)c[n+]([C@H](C(=O)[O-])C(C)C)c1`, the result in the assay with KETR3, with Bel-7402, with BGC-823, with HCT-8, in the assay with A549 and in the assay on MCF7 was inactive. The inhibition at 10 µM in assay [1] is below 30%. The inhibition result in assay [2] is “inactive”.
Take `C=C[C@H]1[C@H](O[C@@H]2O[C@H](CO)[C@@H](O)[C@H](O)[C@H]2O)OC=C(C(=O)[O-])[C@H]1/C=C\c1ccc[n+]([C@H](Cc2ccccc2)C(=O)O)c1`: the result in the assay with KETR3, in the assay with Bel-7402, with BGC-823, with HCT-8, in the assay with A549 and in the assay on MCF7 was inactive. In assay [1], the inhibition at 10 µM is below 30%. Further, the inhibition result in assay [2] is “inactive”.
`O=C(O)c1ccc(O)c(O)c1` [PROTOCATECHUIC ACID]: the result in the assay with KETR3, in the assay with Bel-7402, with BGC-823, with HCT-8, in the assay on A549 and in the assay on MCF7 was inactive. Also, in assay [1], the inhibition at 10 µM was below 30%. The inhibition entry in assay [2] is “inactive”.
On to `Nc1ncnc2c1ncn2[C@@H]1O[C@H](CO)[C@@H](O)[C@H]1O` [ADENOSINE], for which the outcome with KETR3, in the assay on Bel-7402, in the assay on BGC-823, in the assay with HCT-8, in the assay on A549 and in the assay with MCF7 was inactive. In addition, the inhibition at 10 µM in assay [1] is below 30%. Further, the inhibition result in assay [2] is “inactive”.
For `O=C(O)/C=C/c1ccc(O[C@@H]2O[C@H](CO)[C@@H](O)[C@H](O)[C@H]2O)c(O)c1`, the result in the assay with KETR3, in the assay with Bel-7402, with BGC-823, with HCT-8, in the assay with A549 and in the assay on MCF7 was inactive. Moreover, the inhibition at 10 µM in assay [1] was below 30%. Also, in assay [2], the inhibition result was “inactive”.
Consider `C=C[C@H]1[C@H](O[C@@H]2O[C@H](CO)[C@@H](O)[C@H](O)[C@H]2O)OC=C(C(=O)OC)[C@H]1CC(=O)OC`, for which the result with KETR3, with Bel-7402, in the assay with BGC-823, in the assay on HCT-8, in the assay on A549 and with MCF7 was inactive. In assay [1], the inhibition at 10 µM is below 30%. Moreover, the inhibition result in assay [2] was “inactive”.
For the compound `C[C@@H]1C(=O)O[C@H]2[C@H](O)[C@@]34[C@H]5C[C@@H](C(C)(C)C)[C@]36[C@@H](OC(=O)[C@@H]6O)O[C@@]4(C(=O)O5)[C@@]12O` [GINKOLIDE B], the outcome in the assay with KETR3, with Bel-7402, in the assay with BGC-823, in the assay on HCT-8, in the assay with A549 and in the assay with MCF7 was inactive. In addition, the inhibition at 10 µM in assay [1] came to 78%. The inhibition entry in assay [2] was “inactive”.
`COC(=O)C1=CO[C@@H]2C[C@H]1C[C@@H]1C(C(=O)OC)=CO[C@@H](O[C@@H]3O[C@H](CO)[C@@H](O)[C@H](O)[C@H]3O)[C@@H]12`: the outcome with KETR3, with Bel-7402, in the assay on BGC-823, in the assay on HCT-8, in the assay on A549 and in the assay with MCF7 was inactive. In assay [1], the inhibition at 10 µM was below 30%. Besides, the inhibition result in assay [2] is “inactive”.
Take `C=C[C@H]1[C@H](O[C@@H]2O[C@H](CO)[C@@H](O)[C@H](O)[C@H]2O)OC=C(C(N)=O)[C@H]1/C=C/c1ccc[n+]([C@@H](CCC(=O)O)C(=O)[O-])c1`: the result in the assay with KETR3, in the assay with Bel-7402, in the assay on BGC-823, in the assay with HCT-8, in the assay with A549 and with MCF7 was inactive. In assay [1], the inhibition at 10 µM was below 30%. Also, the inhibition result in assay [2] is “inactive”.
In the case of `O=C(/C=C/c1ccc(O)c(O)c1)O[C@H]1[C@H](O)C[C@@](O)(C(=O)O)C[C@H]1O`, the outcome in the assay with KETR3, in the assay on Bel-7402, with BGC-823, in the assay on HCT-8, with A549 and in the assay on MCF7 was inactive. The inhibition at 10 µM in assay [1] was below 30%. For the same compound, the inhibition entry in assay [2] is “inactive”.
With `COc1cc(/C=C/CO)cc(OC)c1O[C@@H]1O[C@H](CO)[C@@H](O)[C@H](O)[C@H]1O` [SYRINGIN], the result in the assay with KETR3, in the assay with Bel-7402, with BGC-823, in the assay with HCT-8, in the assay with A549 and in the assay with MCF7 was inactive. For the same compound, the inhibition at 10 µM in assay [1] is below 30%. In addition, the inhibition result in assay [2] is “inactive”.
For `COC(=O)[C@]1(O)C[C@@H](O)[C@@H](O)[C@H](OC(=O)/C=C/c2ccc(O)c(O)c2)C1` [CHLOROGENIC ACID METHYL ESTER], the outcome with KETR3, in the assay on Bel-7402, in the assay with BGC-823, in the assay with HCT-8, in the assay on A549 and in the assay on MCF7 was inactive. For the same compound, in assay [1], the inhibition at 10 µM is below 30%. For the same compound, in assay [2], the inhibition entry was “inactive”.
Turning to `COC(=O)C1=CO[C@@H](O[C@@H]2O[C@H](CO)[C@@H](O)[C@H](O)[C@H]2O)[C@H]2[C@@H]1CC(=O)[C@@H]2C`, the outcome with KETR3, with Bel-7402, in the assay with BGC-823, with HCT-8, with A549 and in the assay with MCF7 was inactive. The inhibition at 10 µM in assay [1] was below 30%. The inhibition result in assay [2] is “inactive”.
Consider `C=C[C@H]1[C@H](O[C@@H]2O[C@H](CO)[C@@H](O)[C@H](O)[C@H]2O)OC=C(C(=O)OC)[C@H]1/C=C/c1ccc[n+]([C@@H](C)C(=O)[O-])c1`, for which the result with KETR3, in the assay on Bel-7402, in the assay with BGC-823, in the assay on HCT-8, in the assay on A549 and in the assay on MCF7 was inactive. Besides, the inhibition at 10 µM in assay [1] was 72.3%. The inhibition entry in assay [2] is “inactive”.
As for `COc1cc(C(=O)O)ccc1O[C@@H]1O[C@H](COC(=O)c2ccccc2)[C@@H](O)[C@H](O)[C@H]1O`, the result in the assay with KETR3, in the assay with Bel-7402, in the assay with BGC-823, with HCT-8, with A549 and in the assay on MCF7 was inactive. In addition, the inhibition at 10 µM in assay [1] is below 30%. Also, in assay [2], the inhibition result was “inactive”.
Take `O=C(O)/C=C/c1ccc(O)c(O)c1` [CAFFEIC ACID]: the result in the assay with KETR3, in the assay on Bel-7402, in the assay on BGC-823, with HCT-8, in the assay on A549 and with MCF7 was inactive. For the same compound, the inhibition at 10 µM in assay [1] stood at 40.3%. For the same compound, the inhibition result in assay [2] was “inactive”.
Consider `O=C(O)c1cc(O[C@@H]2O[C@H](CO)[C@@H](O)[C@H](O)[C@H]2O)ccc1O`, for which the result in the assay with KETR3, in the assay on Bel-7402, in the assay with BGC-823, with HCT-8, in the assay on A549 and in the assay on MCF7 was inactive. In addition, the inhibition at 10 µM in assay [1] is below 30%. Also, the inhibition entry in assay [2] is “inactive”.
